Experimental data published in the NIST ThermoML archive (doi:10.1016/j.fluid.2010.08.022).
Numbers after ± are expanded uncertainties.

Experiment: refractive index (Na D-line) (dimensionless)
Conditions: 101.33 kPa, Standard Abbe refractometry

refractive index (278.45 K, Crystal)	refractive index (288.35 K, Liquid crystal of unknown type)	refractive index (298.15 K, Liquid crystal of unknown type)	refractive index (308.25 K, Liquid crystal of unknown type)	refractive index (313.21 K, Liquid crystal of unknown type)	refractive index (323.45 K, Liquid crystal of unknown type)	refractive index (333.25 K, Liquid crystal of unknown type)	refractive index (278.35 K, Liquid crystal of unknown type)	refractive index (288.25 K, Liquid crystal of unknown type)	refractive index (298.05 K, Liquid crystal of unknown type)	refractive index (308.22 K, Liquid crystal of unknown type)	refractive index (318.23 K, Liquid crystal of unknown type)	refractive index (328.05 K, Liquid crystal of unknown type)	refractive index (338.05 K, Liquid crystal of unknown type)	refractive index (341.15 K, Liquid crystal of unknown type)	refractive index (343.25 K, Liquid crystal of unknown type)	Structure (SMILES)
1.496 ± 0.00069	1.49406 ± 0.00068	1.48994 ± 0.00068	1.48558 ± 0.00068	1.48343 ± 0.00068	1.47901 ± 0.00068	1.4747 ± 0.00068	–	–	–	–	–	–	–	–	–	CCCCCCCC/C=C\CCCCCCCC(=O)O.NCCO [2-hydroxyethylammonium oleate]
–	–	–	–	–	–	–	1.4956 ± 0.00068	1.49226 ± 0.00068	1.48855 ± 0.00068	1.48463 ± 0.00068	1.48023 ± 0.00068	1.47673 ± 0.00068	1.47267 ± 0.00068	1.47055 ± 0.00075	1.46364 ± 0.00094	CCCCCCCC/C=C\CCCCCCCC(=O)[O-].OCC[NH2+]CCO [bis(2-hydroxyethyl)ammonium oleate]
